Experimental data as given in the supplement of paper PMC10883282.

Assays:
Assay in all cases: relative viability vs DMSO control (72 h) (fraction); higher = more viable cells
[1] = tested on: KHOS-NP
Method in brief: (§1)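 Sarcoma cell lines were grown in 384-well plates seeded toward 80–90% confluence and exposed 24 h later to serially diluted compound. After 72 h at 37 °C and 5% CO2, with 0.1% DMSO vehicle and a 5 µM positive control on the plates, ATPLite was read. Relative viability, given as percent growth averaged over up to triplicate wells, was rescaled so that 1 is full and 0 is none.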

[2] = tested on: A204
Method in brief: as §1

[3] = tested on: HS729
Method in brief: as §1

[4] = tested on: HT1080
Method in brief: as §1

[5] = tested on: SW1353
Method in brief: as §1

[6] = tested on: MES-SA
Method in brief: as §1

[7] = tested on: G401
Method in brief: as §1

[8] = tested on: SYO-1
Method in brief: as §1

[9] = tested on: SK-LMS-1
Method in brief: as §1

[10] = tested on: SW872
Method in brief: as §1

[11] = tested on: SW684
Method in brief: as §1

[12] = tested on: VA-ES-BJ
Method in brief: as §1

CC(C)Oc1ccc(-c2nn([C@@H](C)c3oc4ccc(F)cc4c(=O)c3-c3cccc(F)c3)c3ncnc(N)c23)cc1F [Umbralisib]
Settings | relative viability
[1], 0.00017 µM | 1.091
[1], 0.00051 µM | 1.085
[1], 0.00152 µM | 1.095
[1], 0.00457 µM | 1.1
[1], 0.01372 µM | 1.1
[1], 0.04115 µM | 1.09
[1], 0.1235 µM | 1.11
[1], 0.3704 µM | 1.08
[1], 1.111 µM | 1.1
[1], 3.333 µM | 1.1
[1], 10 µM | 1.077
[2], 0.00017 µM | 1.08
[2], 0.00051 µM | 1.11
[2], 0.00152 µM | 1.12
[2], 0.00457 µM | 1.12
[2], 0.01372 µM | 1.08
[2], 0.04115 µM | 1.09
[2], 0.1235 µM | 1.08
[2], 0.3704 µM | 1.07
[2], 1.111 µM | 0.986
[2], 3.333 µM | 1.02
[2], 10 µM | 0.9
[3], 0.00017 µM | 1.09
[3], 0.00051 µM | 1.09
[3], 0.00152 µM | 1.05
[3], 0.00457 µM | 1.04
[3], 0.01372 µM | 1.05
[3], 0.04115 µM | 0.991
[3], 0.1235 µM | 1.04
[3], 0.3704 µM | 1.01
[3], 1.111 µM | 0.942
[3], 3.333 µM | 0.936
[3], 10 µM | 0.895
[4], 0.00017 µM | 1.07
[4], 0.00051 µM | 1.09
[4], 0.00152 µM | 1.07
[4], 0.00457 µM | 1.09
[4], 0.01372 µM | 1.06
[4], 0.04115 µM | 1.069
[4], 0.1235 µM | 1.08
[4], 0.3704 µM | 1.07
[4], 1.111 µM | 1.05
[4], 3.333 µM | 1.05
[4], 10 µM | 0.955
[5], 0.00017 µM | 1.03
[5], 0.00051 µM | 1.03
[5], 0.00152 µM | 1.032
[5], 0.00457 µM | 1.06
[5], 0.01372 µM | 1.03
[5], 0.04115 µM | 1
[5], 0.1235 µM | 1.01
[5], 0.3704 µM | 0.959
[5], 1.111 µM | 0.97
[5], 3.333 µM | 0.946
[5], 10 µM | 0.8866
[6], 0.00017 µM | 0.946
[6], 0.00051 µM | 0.928
[6], 0.00152 µM | 0.94
[6], 0.00457 µM | 0.981
[6], 0.01372 µM | 0.957
[6], 0.04115 µM | 0.9436
[6], 0.1235 µM | 0.943
[6], 0.3704 µM | 0.945
[6], 1.111 µM | 0.937
[6], 3.333 µM | 0.922
[6], 10 µM | 0.747
[7], 0.00017 µM | 1.02
[7], 0.00051 µM | 1.068
[7], 0.00152 µM | 1.09
[7], 0.00457 µM | 1.05
[7], 0.01372 µM | 1.03
[7], 0.04115 µM | 1.01
[7], 0.1235 µM | 1.02
[7], 0.3704 µM | 0.99
[7], 1.111 µM | 0.988
[7], 3.333 µM | 1.05
[7], 10 µM | 1.1
[8], 0.00017 µM | 1.04
[8], 0.00051 µM | 1.02
[8], 0.00152 µM | 1.03
[8], 0.00457 µM | 1.03
[8], 0.01372 µM | 1.03
[8], 0.04115 µM | 0.995
[8], 0.1235 µM | 1.01
[8], 0.3704 µM | 1.02
[8], 1.111 µM | 0.975
[8], 3.333 µM | 0.968
[8], 10 µM | 0.897
[9], 0.00017 µM | 1.07
[9], 0.00051 µM | 1.06
[9], 0.00152 µM | 1.06
[9], 0.00457 µM | 1.04
[9], 0.01372 µM | 1.05
[9], 0.04115 µM | 1.05
[9], 0.1235 µM | 1.03
[9], 0.3704 µM | 1.06
[9], 1.111 µM | 1.02
[9], 3.333 µM | 0.875
[9], 10 µM | 0.752
[10], 0.00017 µM | 1.09
[10], 0.00051 µM | 1.09
[10], 0.00152 µM | 1.1
[10], 0.00457 µM | 1.08
[10], 0.01372 µM | 1.11
[10], 0.04115 µM | 1.087
[10], 0.1235 µM | 1.07
[10], 0.3704 µM | 1.07
[10], 1.111 µM | 1.09
[10], 3.333 µM | 1.095
[10], 10 µM | 1.04
[11], 0.00017 µM | 1.13
[11], 0.00051 µM | 1.17
[11], 0.00152 µM | 1.16
[11], 0.00457 µM | 1.21
[11], 0.01372 µM | 1.2
[11], 0.04115 µM | 1.19
[11], 0.1235 µM | 1.16
[11], 0.3704 µM | 1.06
[11], 1.111 µM | 0.966
[11], 3.333 µM | 0.9274
[11], 10 µM | 0.882
[12], 0.00017 µM | 1.07
[12], 0.00051 µM | 1.07
[12], 0.00152 µM | 1.11
[12], 0.00457 µM | 1.08
[12], 0.01372 µM | 1.08
[12], 0.04115 µM | 1.05
[12], 0.1235 µM | 1.07
[12], 0.3704 µM | 1.05
[12], 1.111 µM | 1.05
[12], 3.333 µM | 1.05
[12], 10 µM | 1.1
